These results are taken from patent US12338484B2, “FRET biosensor for detecting and reporting NAD+/NADH ratio changes” (Sartorius BioAnalytical Instruments, Inc., priority 2022, dated 2025).

This assay can be described thus: Performance of initial constructs under dual-excitation FRET signal collection mode. In kind it is biochemical. From the text: Constructs #10 and #14 in Table 3 were used to generate protein libraries. […] This is evidenced by the fact that all clones chosen from the libraries to proceed with have in vitro a substantial increase in signal window, compared to the original template protein (constructs #10 or #14). These increases are also roughly similar fold-wise between the numbers obtained in bacterial lysate screening and in the process of in vitro characterization.

In the case of “Rex(A)-cpmEGFP(173/174)-Rex(B)-mKOk [Construct #12]”, the “Performance under dual-excitation FRET signal collection mode” value is reported as “poor performance”.
